Laboratory results taken from PubChem BioAssay (NCI).
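Step 1: Grow cells in 96-well plates. Step 2: Expose to compound for 48 hours at 5 concentrations. Step 3: Interpolate endpoints linearly; if unreached, use highest concentration. Definition used: TGI = concentration required for complete inhibition of growth.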

Experiments:
Test in all cases: NCI-60 cell line screen, 48 h
786-0 renal = test system: 786-0 renal
A498 renal = test system: A498 renal
ACHN renal = test system: ACHN renal
CAKI-1 renal = test system: CAKI-1 renal
DU-145 prostate = test system: DU-145 prostate
EKVX NSCLC = test system: EKVX NSCLC
HCC-2998 colon = test system: HCC-2998 colon
HCT-116 colon = test system: HCT-116 colon
HCT-15 colon = test system: HCT-15 colon
HL-60(TB) leukemia = test system: HL-60(TB) leukemia
HOP-62 NSCLC = test system: HOP-62 NSCLC
HOP-92 NSCLC = test system: HOP-92 NSCLC
HS 578T breast = test system: HS 578T breast
HT29 colon = test system: HT29 colon
IGROV1 ovarian = test system: IGROV1 ovarian
K-562 leukemia = test system: K-562 leukemia
KM12 colon = test system: KM12 colon
LOX IMVI melanoma = test system: LOX IMVI melanoma
M14 melanoma = test system: M14 melanoma
MCF7 breast = test system: MCF7 breast
MDA-MB-231 breast = test system: MDA-MB-231 breast
MDA-MB-435 = test system: MDA-MB-435
MDA-N = test system: MDA-N
MOLT-4 leukemia = test system: MOLT-4 leukemia
NCI-H226 lung = test system: NCI-H226 lung
NCI-H23 lung = test system: NCI-H23 lung
NCI-H460 lung = test system: NCI-H460 lung
NCI-H522 lung = test system: NCI-H522 lung
NCI/ADR-RES ovarian = test system: NCI/ADR-RES ovarian
OVCAR-3 ovarian = test system: OVCAR-3 ovarian
OVCAR-4 ovarian = test system: OVCAR-4 ovarian
OVCAR-5 ovarian = test system: OVCAR-5 ovarian
OVCAR-8 ovarian = test system: OVCAR-8 ovarian
PC-3 prostate = test system: PC-3 prostate
RPMI-8226 leukemia = test system: RPMI-8226 leukemia
RXF 393 renal = test system: RXF 393 renal
SF-268 CNS = test system: SF-268 CNS
SF-295 CNS = test system: SF-295 CNS
SF-539 CNS = test system: SF-539 CNS
SK-MEL-2 melanoma = test system: SK-MEL-2 melanoma
SK-MEL-28 melanoma = test system: SK-MEL-28 melanoma
SK-MEL-5 melanoma = test system: SK-MEL-5 melanoma
SK-OV-3 ovarian = test system: SK-OV-3 ovarian
SR leukemia = test system: SR leukemia
SW-620 colon = test system: SW-620 colon
T-47D breast = test system: T-47D breast
TK-10 renal = test system: TK-10 renal
U251 CNS = test system: U251 CNS
UACC-257 melanoma = test system: UACC-257 melanoma
UO-31 renal = test system: UO-31 renal
A549 NSCLC = test system: A549 NSCLC
CCRF-CEM leukemia = test system: CCRF-CEM leukemia
COLO 205 colon = test system: COLO 205 colon
MALME-3M melanoma = test system: MALME-3M melanoma
SN12C renal = test system: SN12C renal
SNB-19 CNS = test system: SNB-19 CNS
UACC-62 melanoma = test system: UACC-62 melanoma

CCCCC1Cc2ccccc2-c2nc3ccccc3n21 (centres undefined)
TGI (786-0 renal): 61.9 µM | TGI (A498 renal): 30.6 µM | TGI (ACHN renal): 31 µM | TGI (CAKI-1 renal): 31.9 µM | TGI (DU-145 prostate): 38.1 µM | TGI (EKVX NSCLC): 50 µM | TGI (HCC-2998 colon): 27.8 µM | TGI (HCT-116 colon): 26.6 µM | TGI (HCT-15 colon): 28.4 µM | TGI (HL-60(TB) leukemia): 0.231 µM | TGI (HOP-62 NSCLC): 36.5 µM | TGI (HOP-92 NSCLC): 30.8 µM | TGI (HS 578T breast): 35.4 µM | TGI (HT29 colon): 29.6 µM | TGI (IGROV1 ovarian): 32.9 µM | TGI (K-562 leukemia): 31.7 µM | TGI (KM12 colon): 38.5 µM | TGI (LOX IMVI melanoma): 31.6 µM | TGI (M14 melanoma): 36.3 µM | TGI (MCF7 breast): 32.9 µM | TGI (MDA-MB-231 breast): 31.7 µM | TGI (MDA-MB-435): 37.1 µM | TGI (MDA-N): 29.2 µM | TGI (MOLT-4 leukemia): 32.9 µM | TGI (NCI-H226 lung): 39.5 µM | TGI (NCI-H23 lung): 32 µM | TGI (NCI-H460 lung): 28.8 µM | TGI (NCI-H522 lung): 26.5 µM | TGI (NCI/ADR-RES ovarian): 33.5 µM | TGI (OVCAR-3 ovarian): 30.3 µM | TGI (OVCAR-4 ovarian): 29.8 µM | TGI (OVCAR-5 ovarian): 31.4 µM | TGI (OVCAR-8 ovarian): 34.9 µM | TGI (PC-3 prostate): 22.1 µM | TGI (RPMI-8226 leukemia): 32.5 µM | TGI (RXF 393 renal): 34.5 µM | TGI (SF-268 CNS): 33 µM | TGI (SF-295 CNS): 30.8 µM | TGI (SF-539 CNS): 41.4 µM | TGI (SK-MEL-2 melanoma): 30.7 µM | TGI (SK-MEL-28 melanoma): 31 µM | TGI (SK-MEL-5 melanoma): 31.1 µM | TGI (SK-OV-3 ovarian): 37.5 µM | TGI (SR leukemia): 24.3 µM | TGI (SW-620 colon): 33.9 µM | TGI (T-47D breast): 29.4 µM | TGI (TK-10 renal): 31.5 µM | TGI (U251 CNS): 30.9 µM | TGI (UACC-257 melanoma): 32.2 µM | TGI (UO-31 renal): 36.1 µM

CC1S/C(=N\N=C2/C(=O)Nc3ccc(Br)cc32)N(C2CCCCC2)C1=O (centres undefined)
TGI (786-0 renal): 6.01 µM | TGI (A498 renal): 12.5 µM | TGI (A549 NSCLC): 12.6 µM | TGI (ACHN renal): 3.24 µM | TGI (CAKI-1 renal): 6.39 µM | TGI (CCRF-CEM leukemia): > 100 µM | TGI (COLO 205 colon): 33.4 µM | TGI (DU-145 prostate): 17.6 µM | TGI (EKVX NSCLC): 22.2 µM | TGI (HCC-2998 colon): 45 µM | TGI (HCT-116 colon): 6.61 µM | TGI (HCT-15 colon): 16 µM | TGI (HL-60(TB) leukemia): > 100 µM | TGI (HOP-62 NSCLC): 4.25 µM | TGI (HOP-92 NSCLC): 25.4 µM | TGI (HS 578T breast): 14.4 µM | TGI (HT29 colon): 53.2 µM | TGI (K-562 leukemia): > 100 µM | TGI (KM12 colon): 20.8 µM | TGI (LOX IMVI melanoma): 13.6 µM | TGI (M14 melanoma): 22.7 µM | TGI (MALME-3M melanoma): 31.1 µM | TGI (MCF7 breast): 35 µM | TGI (MDA-MB-231 breast): 6.76 µM | TGI (MDA-MB-435): 23.1 µM | TGI (MDA-N): > 100 µM | TGI (MOLT-4 leukemia): > 100 µM | TGI (NCI-H226 lung): 18 µM | TGI (NCI-H23 lung): 15.6 µM | TGI (NCI-H460 lung): 18.8 µM | TGI (NCI/ADR-RES ovarian): 15.6 µM | TGI (OVCAR-3 ovarian): 10 µM | TGI (OVCAR-4 ovarian): 4.89 µM | TGI (OVCAR-5 ovarian): > 100 µM | TGI (PC-3 prostate): 19.9 µM | TGI (RPMI-8226 leukemia): > 100 µM | TGI (RXF 393 renal): 14.9 µM | TGI (SF-268 CNS): 22.3 µM | TGI (SF-295 CNS): 16.8 µM | TGI (SF-539 CNS): 16.3 µM | TGI (SK-MEL-2 melanoma): 3.65 µM | TGI (SK-MEL-28 melanoma): 23.8 µM | TGI (SK-MEL-5 melanoma): > 100 µM | TGI (SK-OV-3 ovarian): 14 µM | TGI (SN12C renal): 12.3 µM | TGI (SNB-19 CNS): 14.8 µM | TGI (SR leukemia): 39.4 µM | TGI (SW-620 colon): 46.3 µM | TGI (T-47D breast): 19.6 µM | TGI (TK-10 renal): 6.58 µM | TGI (U251 CNS): 7.73 µM | TGI (UACC-257 melanoma): > 100 µM | TGI (UACC-62 melanoma): 6.75 µM | TGI (UO-31 renal): 3.08 µM
